Experimental data reported in paper PMC6801819, “Exogenous Iron Increases Fasciocidal Activity and Hepatocellular Toxicity of the Synthetic Endoperoxides OZ78 and MT04” (International Journal of Molecular Sciences, 2019).

Tests used:
[1] = tested on: complex I of the mitochondrial electron transport chain; experiment: High-resolution respirometry, glutamate/malate (complex I); format: cell-based, human; conditions: AS 100 µM, OZ78 500 µM, MT04 500 µM, 24 h, permeabilized HepG2, vs DMSO
Method: (§1) After incubation with different drugs for 24 h, HepG2 cells were trypsinized and resuspended in DMEM with 10% fetal calf serum (FCS) and then centrifuged for 5 min (180× g). Cells were resuspended in MiRo5 respiration buffer (110 mM sucrose, 0.5 mM ethylene glycol-bis(β-aminoethyl ether)-N,N,N′,N′-tetraacetic acid (EGTA), 3.0 mM MgCl2, 80 mM KCl, 60 mM K-lactobionate, 10 mM KH2PO4, 20 mM taurine, 20 mM Hepes, 1.0 g/L BSA, pH 7.1). Respiration rates were measured at 37 °C using a high-resolution oxygraph (Oxygraph-2k, Oroboros Instruments, Innsbruck, Austria). Respiration rates were calculated as the time derivative of oxygen concentration measured in the closed respirometer. The amplified signal was recorded in a computer with an online display of the calibrated oxygen concentration and oxygen flux (DatLab software for data acquisition and analysis; Oroboros Instruments). The mitochondrial complex activity was assessed by a standard titration protocol: first cells were permeabilized with digitonin (10 µg/1 million cells) for 5 min. Afterward, for complex I-dependent maximal respiration stimulation, substrates added were glutamate (10 mM) and malate (5 mM), which provide nicotinamide adenine dinucleotide (NADH) to the respiratory chain (complex I activation), followed by addition of ADP (2.5 mM) (state 3, maximal respiration). After a stable signal was reached and marked, rotenone (0.5 µM) was added to inhibit complex I, and then complex II-dependent respiration was stimulated by adding succinate (10 mM), which provides flavin adenine dinucleotide (FADH) to the respiratory chain (complex II activation, state 3). Afterward, complex III was inhibited by antimycin A (2.5 µM), and complex IV-dependent respiration was measured by adding ascorbate (2 mM) and N,N,N′,N′-tetramethyl-p-phenylendiamine (TMPD, 0.5 mM). We confirmed the integrity of the outer mitochondrial membrane by showing the absence of a stimulatory effect of exogenous cytochrome c (10 µM) on respiration. Respiration was expressed as oxygen consumption per 5 × 10^5 cells.

[2] = tested on: complex IV of the mitochondrial electron transport chain; experiment: High-resolution respirometry, TMPD/ascorbate + antimycin A (complex IV); format: cell-based, human; conditions: AS 100 µM, OZ78 500 µM, MT04 500 µM, 24 h, permeabilized HepG2
Method: as §1

F. hepatica = conditions: rats infected with F. hepatica, single oral dose AS 200 mg/kg, OZ78 100 mg/kg, MT04 50 mg/kg; cited from earlier work
HepG2 cells [3] = experiment: Adenylate kinase leakage (membrane integrity test); format: cell-based, human; conditions: 24 h, HepG2; for increase in AK release as compared to DMSO control / membrane integrity: 500 µM alone (OZ78, MT04: up to 500 µM); for release of AK, increase as compared to DMSO: combined treatment with Fe2+, concentration not given
Method: (§2) Stock solutions of the drugs tested were prepared in DMSO 100% (v/v).
(§3) In viability assays, HepG2 cells were treated with 0.1% Triton-X or 0.1% DMSO for positive or negative control, respectively.
The assay was used according to the protocol supplied by the manufacturer.

[4] = tested on: complex II of the mitochondrial electron transport chain; experiment: High-resolution respirometry, succinate + rotenone (complex II); format: cell-based, human; conditions: AS 100 µM, OZ78 500 µM, MT04 500 µM, 24 h, permeabilized HepG2, vs control
Method: as §1

HepG2 cells [5] = experiment: Cellular reactive oxygen species (DCF-DA); format: cell-based, human; conditions: 24 h, HepG2; for cellular ROS content: drug + Fe2+; for increase of cellular ROS content, factor: drug alone (100 or 500 µM), no exogenous iron
Method: Stock solutions of the drugs tested were prepared in DMSO 100% (v/v). […] LC-MS measurements confirmed the stability of the compounds (data not shown). Treatments with AS, MT04, or OZ78 (100 or 500 µM) were performed either alone or in combination with 8% (v/v) hemin or FeCl2 solution for 24 h. The final iron concentration used was 122 µM (stock 1.5 mM) based on previous in vitro studies with F. hepatica. Dichlorodihydrofluorescein diacetate (DCF-DA) dissolved in DMSO was used to assess cellular formation of reactive oxygen species (ROS). HepG2 cells were seeded in a black-wall 96 well plate with a clear bottom as described above. Briefly, 30 min before treatment started, DCF-DA was added to the cells at a final concentration of 25 µM. DCF-DA was removed completely before the drugs were added. ROS was measured after 90 min and 24 h of drug exposure using a Tecan M200 Infinite Pro (excitation 485 nm, emission 535 nm).

HepG2 cells [6] = experiment: Cellular ATP content (CellTiter-Glo); format: cell-based, human; conditions: 24 h, HepG2
Method: as §2, §3
To assess cellular ATP content, HepG2 cells were seeded in white-wall 96-well plates with a clear bottom (Nunc). One day after seeding, cells were treated with the respective drugs. […] Luminescence was measured using Tecan M200 Infinite Pro.

adult F. hepatica = experiment: In vitro/ex vivo adult worm viability assay; format: cell-based, Fasciola hepatica; conditions: for viability of adult F. hepatica (viability score): score 4 normal activity to 1 death; for viability of adult F. hepatica: 48 h
Method: The experiments were performed, as described previously. Adult F. hepatica were collected from bovine liver bile ducts obtained from the local slaughterhouse (Basel, Switzerland). After careful washing, a single adult worm was placed per well (6-well plate, Costar, MA, USA) containing 5.4 mL RPMI 1640 (Gibco, N.Y., USA), supplemented with 1% (v/v) antibiotics (50 µg/mL streptomycin and 50 U/mL penicillin), 1% (v/v) drug solution, […] Control worms were incubated in 1% (v/v) DMSO combined with iron or hemin. Experiments were conducted in triplicates and repeated once. Cultures were kept at 37 °C in an atmosphere of 5% CO2. The viabilities of treated and untreated worms were monitored at 0, 24, 48, and 72 h. Worms were examined by eye and/or using a dissecting microscope (20× lenses). The viability of adult flukes was scored using the following scale: 4: normal activity; movements were visible without a microscope, 3: reduced activities, 2: very weak activities detected only using microscopic magnification, and 1: death of worm (no movement observed for two min using a microscope).

[7] = 50 µg/mL drug + Fe2+ (iron), 24 h
[8] = 50 µg/mL drug + Fe2+ (iron), 72 h

O=C(O)C[C@H]1CC[C@]2(CC1)OOC1(O2)C2CC3CC(C2)CC1C3 (some centres unmarked) [OZ78]
inhibition of maximal ADP-stimulated respiration rate, glutamate + malate (complex I) [1]: did not significantly impair mitochondrial function | decrease of maximal ADP-stimulated respiration rate, TMPD/ascorbate + antimycin A (complex IV) [2]: only numerically, but without reaching statistical significance | killing of juvenile and adult liver flukes in vivo (F. hepatica): efficiently killed juvenile and adult liver flukes | increase in AK release as compared to DMSO control / membrane integrity (HepG2 cells [3]): did not impair membrane integrity | release of AK, increase as compared to DMSO (HepG2 cells [3]): did not | inhibition of mitochondrial respiration, succinate + rotenone (complex II) [4]: only numerically, but without reaching statistical significance | cellular ROS content (HepG2 cells [5]): increased the cellular ROS content | increase of cellular ROS content, factor (HepG2 cells [5]): 5 | decrease in cellular ATP content as compared to DMSO (HepG2 cells [6]; 100 µM + Fe2+ (iron)): not toxic | decrease in cellular ATP content as compared to DMSO (HepG2 cells [6]; 100 µM + hemin): 12% | decrease in cellular ATP content as compared to DMSO (HepG2 cells [6]; 100 µM alone): not toxic | decrease in cellular ATP content as compared to DMSO (HepG2 cells [6]; 500 µM + Fe2+ (iron)): not enhanced by the addition of iron or hemin | decrease in cellular ATP content as compared to DMSO (HepG2 cells [6]; 500 µM + hemin): not enhanced by the addition of iron or hemin | decrease in cellular ATP content as compared to DMSO (HepG2 cells [6]; 500 µM alone): 14% | viability of adult F. hepatica (viability score) (adult F. hepatica; [7]): 3 | viability of adult F. hepatica (adult F. hepatica; 50 µg/mL drug + Fe2+ (iron)): more efficient in impairing worm viability than OZ78 alone | viability of adult F. hepatica (viability score) (adult F. hepatica; [8]): 2 | viability of adult F. hepatica (viability score) (adult F. hepatica; 50 µg/mL drug + hemin, 24 h): 3 | viability of adult F. hepatica (adult F. hepatica; 50 µg/mL drug + hemin): more efficient in impairing worm viability than OZ78 alone | viability of adult F. hepatica (viability score) (adult F. hepatica; 50 µg/mL drug + hemin, 72 h): 2 | viability of adult F. hepatica (viability score) (adult F. hepatica; 50 µg/mL drug alone, 24 h): no effect on worm vitality | viability of adult F. hepatica (viability score) (adult F. hepatica; 50 µg/mL drug alone, 72 h): 2

C[C@H]1[C@H](OC(=O)CCC(=O)O)O[C@@H]2O[C@@]3(C)CC[C@H]4[C@H](C)CC[C@@H]1[C@@]24OO3 [AS, artesunate, reference compound]
inhibition of maximal ADP-stimulated respiration rate, glutamate + malate (complex I) [1]: 75% | decrease of maximal ADP-stimulated respiration rate, TMPD/ascorbate + antimycin A (complex IV) [2]: 47% | killing of juvenile and adult liver flukes in vivo (F. hepatica): efficiently killed juvenile and adult liver flukes | membrane leakage (AK release) as compared to DMSO control (HepG2 cells [3]; 100 µM + Fe2+): 320% | increase in AK release as compared to DMSO control (HepG2 cells [3]; 100 µM alone): 190% | increase in AK release as compared to DMSO control / membrane integrity (HepG2 cells [3]): 270% | inhibition of mitochondrial respiration, succinate + rotenone (complex II) [4]: 83% | cellular ROS content (HepG2 cells [5]): increased the cellular ROS content | increase of cellular ROS content, factor (HepG2 cells [5]): 5 | decrease in cellular ATP content as compared to DMSO (HepG2 cells [6]; 100 µM + Fe2+ (iron)): 93% | decrease in cellular ATP content as compared to DMSO (HepG2 cells [6]; 100 µM + hemin): 95% | decrease in cellular ATP content as compared to DMSO (HepG2 cells [6]; 100 µM alone): 55% | decrease in cellular ATP content as compared to DMSO (HepG2 cells [6]; 500 µM + Fe2+ (iron)): complete depletion in cellular ATP | decrease in cellular ATP content as compared to DMSO (HepG2 cells [6]; 500 µM + hemin): complete depletion in cellular ATP | decrease in cellular ATP content as compared to DMSO (HepG2 cells [6]; 500 µM alone): complete depletion in cellular ATP | viability of adult F. hepatica (viability score) (adult F. hepatica; [8]): death of the worms | viability of adult F. hepatica (viability score) (adult F. hepatica; 50 µg/mL drug + hemin, 72 h): death of the worms | viability of adult F. hepatica (viability score) (adult F. hepatica; 50 µg/mL drug alone, 72 h): death of the worms

O=C(O)CC1CCC2(CC1)OOC1(OO2)C2CC3CC(C2)CC1C3 (centres unmarked) [MT04]
inhibition of maximal ADP-stimulated respiration rate, glutamate + malate (complex I) [1]: 53% | decrease of maximal ADP-stimulated respiration rate, TMPD/ascorbate + antimycin A (complex IV) [2]: 22% | killing of juvenile and adult liver flukes in vivo (F. hepatica): efficiently killed juvenile and adult liver flukes | increase in AK release as compared to DMSO control / membrane integrity (HepG2 cells [3]): did not impair membrane integrity | release of AK, increase as compared to DMSO (HepG2 cells [3]): 200% | inhibition of mitochondrial respiration, succinate + rotenone (complex II) [4]: 61% | cellular ROS content (HepG2 cells [5]): not | decrease in cellular ATP content as compared to DMSO (HepG2 cells [6]; 100 µM + Fe2+ (iron)): 20% | decrease in cellular ATP content as compared to DMSO (HepG2 cells [6]; 100 µM + hemin): 40% | decrease in cellular ATP content as compared to DMSO (HepG2 cells [6]; 100 µM alone): not toxic | decrease in cellular ATP content as compared to DMSO (HepG2 cells [6]; 500 µM + Fe2+ (iron)): 65% | decrease in cellular ATP content as compared to DMSO (HepG2 cells [6]; 500 µM + hemin): 65% | decrease in cellular ATP content as compared to DMSO (HepG2 cells [6]; 500 µM alone): 20% | viability of adult F. hepatica (viability score) (adult F. hepatica; [7]): 2.2 | viability of adult F. hepatica (viability score) (adult F. hepatica; [8]): 1.6 | viability of adult F. hepatica (viability score) (adult F. hepatica; 50 µg/mL drug + hemin, 24 h): 2.5 | viability of adult F. hepatica (viability score) (adult F. hepatica; 50 µg/mL drug + hemin, 72 h): death of the worms | viability of adult F. hepatica (viability score) (adult F. hepatica; 50 µg/mL drug alone, 24 h): not affected | viability of adult F. hepatica (viability score) (adult F. hepatica; 50 µg/mL drug alone, 72 h): 1.6
